Values of other authors in US8168657B2, “Solenopsin A, B and analogs and as novel angiogenesis inhibitors” (priority 2002, dated 2012).

How the values were obtained:
[1] = tested on: blood and tissue- and fluid-feeding parasites
[2] = as much as 6000 units used over a shorter time period

SMILES: CCCCCCCCCCC[C@H]1CCC[C@H](C)N1 (relative stereo) [Solenopsin A, trans-2-methyl 6-n-undecylpiperidine]
- units equivalent to 250 units of the whole body extracts ([1]; synthetic version versus whole body extract, effective treatment): 1500 units
- elimination of blood and tissue- and fluid-feeding parasites ([1]; synthetically produced Solenopsin A): complete elimination
- ill effects [2]: did not cause any ill effects
